Converted amounts (≈) assume the structure as drawn.
How the values were obtained:
[1] = Permeability of the compound assessed as absorbed fraction incubated for 10 hrs by PAMPA assay; type: ADME
[2] = molecular target: T1, 1-deoxy-D-xylulose-5-phosphate synthase (Haemophilus influenzae (strain 86-028NP), UniProt Q4QKG6); test: Inhibition of Haemophilus influenzae recombinant DXPS
T1 sequence (Q4QKG6 whole entry): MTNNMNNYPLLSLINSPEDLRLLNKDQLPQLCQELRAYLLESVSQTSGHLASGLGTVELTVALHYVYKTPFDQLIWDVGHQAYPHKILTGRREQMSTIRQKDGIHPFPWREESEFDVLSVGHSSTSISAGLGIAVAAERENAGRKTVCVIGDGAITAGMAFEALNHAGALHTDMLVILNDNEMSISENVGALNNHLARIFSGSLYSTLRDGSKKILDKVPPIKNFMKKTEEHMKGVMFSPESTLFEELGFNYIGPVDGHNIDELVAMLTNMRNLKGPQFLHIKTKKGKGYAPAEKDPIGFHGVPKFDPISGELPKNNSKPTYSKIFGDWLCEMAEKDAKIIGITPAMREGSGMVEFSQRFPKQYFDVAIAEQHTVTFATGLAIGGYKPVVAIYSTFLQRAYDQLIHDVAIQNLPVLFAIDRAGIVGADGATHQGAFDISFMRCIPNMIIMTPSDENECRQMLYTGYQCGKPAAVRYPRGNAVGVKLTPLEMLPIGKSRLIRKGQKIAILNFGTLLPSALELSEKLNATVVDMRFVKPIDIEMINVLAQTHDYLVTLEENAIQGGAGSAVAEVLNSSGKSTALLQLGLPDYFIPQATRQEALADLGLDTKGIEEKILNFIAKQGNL

Haemophilus influenzae = test: Antibacterial activity against Haemophilus influenzae ATCC 43095 assessed as reduction in bacterial growth incubated for 20 hrs; type: functional
Escherichia coli = test: Antibacterial activity against Escherichia coli W3110 assessed as reduction in bacterial growth incubated for 20 hrs; type: functional
[3] = Inhibition of N-terminal his-tagged Chlamydomonas DXPS
HFF = test: Cytotoxicity against human HFF cells assessed as inhibition of cell proliferation upto 1000 uM incubated for 96 hrs by SYBR-safe assay; type: toxicity, cell-based

Compound	permeability [1]	IC50 [2]	MIC (Haemophilus influenzae)	MIC (Escherichia coli)	IC50 [3]	Activity (HFF)
CC1(C)C(=O)ON(Cc2ccccc2Cl)C1=O [KETOCLOMAZONE]	47%	28 µM	31 µM (≈ 7.86 µg/mL)	3100 µM (≈ 786 µg/mL)	100 µM	Non-Toxic
CC(C)(C(=O)O)C(=O)N(O)Cc1ccccc1Cl			117 µM (≈ 31.8 µg/mL)			
